# Results published in patent US7524880B2, “Crystalline form of a substituted pyrrolidine compound” (Theravance, Inc., priority 2004, dated 2009).
# Where a name gives a salt, the structure may show the parent alone.
# Tests used:
# [1] = test system: MCh-induced depressor responses; assay: Methacholine-induced depressor responses in conscious guinea pigs; type: in vivo; conditions: conscious guinea pig, inhalation
# Excerpt: Healthy, adult, male Sprague-Dawley guinea pigs (Harlan, Indianapolis, Ind.), weighing between 200 and 300 g were used in these studies. Under isoflurane anesthesia (to effect), animals were instrumented with common carotid artery and jugular vein catheters (PE-50 tubing). The catheters were exteriorized utilizing a subcutaneous tunnel to the subscapular area. All surgical incisions were sutured with 4-0 Ethicon Silk and the catheters locked with heparin (1000 units/mL). Each animal was administered saline (3 mL, SC) at the end of surgery as well as buprenorphine (0.05 mg/kg, IM). Animals were allowed to recover on a heating pad before being returned to their holding rooms.
# Approximately 18 to 20 hours following surgery, the animals were weighed and the carotid artery catheter on each animal was connected to a transducer for recording arterial pressure. Arterial pressure and heart rate was recorded using a Biopac MP-100 Acquisition System. Animals were allowed to acclimate and stabilize for a period of 20 minutes.
# Each animal was challenged with methylcholine (MCh) (0.3 mg/kg, iv) administer through the jugular venous line and the cardiovascular response was monitored for 10 minutes. […] At 1.5 and 24 h post-dosing, the animals were re-challenged with MCh (0.3 mg/kg, iv) and the hemodynamic response was determined. […]
# [2] = Thermal analysis (DSC/TGA); type: physicochemical; conditions: heating ramp 5° C./min, ambient to about 300° C.
# Experimental: Differential scanning calorimetry (DSC) was performed using a TA Instruments Model Q-10 module with a Thermal Analyst controller. Data were collected and analyzed using TA Instruments Thermal Solutions software. A sample of about 1 mg was accurately weighed into an aluminum pan with lid. The sample was evaluated using a linear heating ramp of 5° C./min from ambient temperature to approximately 300° C. The DSC cell was purged with dry nitrogen during use. A representative DSC trace for a sample of the crystalline naphthalene-1,5-disulfonic acid salt of 2-[(S)-1-(8-methylaminooctyl)pyrrolidin-3-yl]-2,2-diphenylacetamide of Example 5 is shown in FIG. 2.
# Thermogravimetric analysis (TGA) was performed using a TA Instruments Model Q-50 module equipped with high resolution capability. Data were collected and analyzed using TA Instruments Thermal Solutions software. A sample weighing about 10 mg was placed onto a platinum pan and scanned with a high resolution-heating rate from ambient temperature to 300° C. The balance and furnace chambers were purged with nitrogen flows during use. A representative TGA trace for a sample of the crystalline naphthalene-1,5-disulfonic acid salt of 2-[(S)-1-(8-methylaminooctyl)pyrrolidin-3-yl]-2,2-diphenylacetamide of Example 5 is shown in FIG. 2.
# [3] = Solid state stability assessment (HPLC); type: physicochemical
# Experimental: Samples of the crystalline naphthalene-1,5-disulfonic acid salt of 2-[(S)-1-(8-methylaminooctyl)pyrrolidin-3-yl]-2,2-diphenylacetamide of Example 5, about 30 mg each, were stored in multiple 3 mL borosilicate vials at −20° C. (closed container), 40° C./75% RH (open and closed container), and at 80° C. (closed container). At specific intervals, the entire contents of a representative vial was analyzed by the following HPLC method:
# Samples were prepared as 1 mg/mL solutions using 50% EtOH and 50% citrate buffer (10 mM pH 5 in normal saline). These solutions were then injected onto the HPLC.
# The initial purity of the samples was 99.5% as determined by HPLC area percentage. […] (closed container) and 40° C./75% RH (open and closed container).
# [4] = Solution state stability assessment (HPLC); type: physicochemical; conditions: for change in purity (HPLC): 1 mg/mL and 0.1 mg/mL in normal saline, 10 mM citrate pH 5
# Experimental: Samples of the crystalline naphthalene-1,5-disulfonic acid salt of 2-[(S)-1-(8-methylaminooctyl)pyrrolidin-3-yl]-2,2-diphenylacetamide of Example 5 were used to prepare an inhalation solution consisting of 1 mg/mL and 0.1 mg/mL salt in normal saline with 10 mM citrate buffer adjusted to pH 5. The resulting solutions were placed in 3 mL borosilicate vials and stoppered with Teflon grey plug stoppers. The solutions were then stored at −20° C., 5° C., 30° C., 60° C. The samples were analyzed according to the HPLC method described in Example 10. After approximately six months for the solutions stored at −20° C., 5° C., and 30° C. there was no detectable change in purity observed (less than 0.5%) for samples stored at 60° C. less than 5% change in purity was observed.
# [5] = Dynamic moisture sorption assessment; type: physicochemical; conditions: for deliquescence: exposed to atmospheric moisture
# Experimental: A dynamic moisture sorption (DMS) assessment (also known as a moisture sorption-desorption profile) was performed for a sample of a crystalline naphthalene-1,5-disulfonic acid salt of 2-[(S)-1-(8-methylaminooctyl)pyrrolidin-3-yl]-2,2-diphenylacetamide (prepared according to the procedure of Example 5) using a VTI atmospheric microbalance, SGA-100 system (VTI Corp., Hialeah, Fla. 33016). A sample size of approximately 10 mg was used and the humidity was set at the ambient value at the start of the analysis. A typical DMS analysis consisted of three scans: ambient to 2% RH, 2% RH to 90% RH, 90% RH to 5% RH at a scan rate of 5% RH/step. The mass was measured every two minutes and the RH was changed to the next value (+/−5% RH) when the mass of the sample was stable to within 0.01% for 5 consecutive points.
# The salt has an acceptable 1.9% weight gain when it exposed to a broad humidity range from 2% RH up to 90% RH and it has a less than 1% weight gain in the humidity range of 40% RH to 75% RH.
# [6] = Micronization with a jet mill, comparison with unmicronized material; type: physicochemical; conditions: micronized compared to unmicronized material
# Excerpt: A sample of a crystalline naphthalene-1,5-disulfonic acid salt of 2-[(S)-1-(8-methylaminooctyl)pyrrolidin-3-yl]-2,2-diphenylacetamide (prepared according to the procedure of Examples 4 and 5) was micronized with a jet mill to give a free-flowing white powder with birefringence observed upon microscopic examination.
# [7] = solid, 3 months, all conditions
compound,measurement,setting,value
"CNCCCCCCCCN1CC[C@@H](C(C(N)=O)(c2ccccc2)c2ccccc2)C1 [Example 1, 2-[(S)-1-(8-Methylaminooctyl)pyrrolidin-3-yl]-2,2-diphenylacetamide]",apparent lung-selectivity index (ratio of anti-depressor ID50 to bronchoprotective ID50),[1],greater than 5
"CNCCCCCCCCN1CC[C@@H](C(C(N)=O)(c2ccccc2)c2ccccc2)C1 [Example 5, 2-[(S)-1-(8-Methylaminooctyl)pyrrolidin-3-yl]-2,2-diphenylacetamide Naphthalene-1,5-disulfonic Acid Salt]",thermal decomposition (DSC),[2],no thermal decomposition below 200 °C
same,chemical degradation by HPLC,[3]; 6 months storage at 40° C. and 75% relative humidity,no detectable chemical degradation
same,change in the appearance of the material,[3]; [7],no observable change
same,differences by DSC and TGA,[3]; [7],no detectable differences
same,change in chemical purity (HPLC),"[3]; solid, 3 months, all conditions: −20° C. closed, 40° C./75% RH open and closed, 80° C. closed",less than 0.5%
same,chemical or physical differences,"[3]; solid, 6 months at −20° C. (closed) and 40° C./75% RH (open and closed)",no detectable chemical or physical differences
same,chemical degradation by HPLC,[3]; storage for 28 days at 40° C. and 75% relative humidity,less than 0.5%
same,change in purity (HPLC),[4]; approximately six months at 60° C.,less than 5%
same,change in purity (HPLC),"[4]; approximately six months at −20° C., 5° C. and 30° C.",less than 0.5%
same,change in pH values of solutions,"[4]; inhalation solutions in normal saline, 10 mM citrate pH 5, approximately six months",no appreciable change
same,weight gain on exposure to humidity,[5]; 2% RH up to 90% RH,1.9%
same,weight gain on exposure to humidity,"[5]; 2% RH up to 90% RH, listed as crystalline naphthalene-1,5-disulfonic acid salt of the compound of formula I",less than 2%
same,deliquescence,[5],not deliquescent
same,deliquescence,"[5]; listed as crystalline naphthalene-1,5-disulfonic acid salt",not to be deliquescent
same,weight gain on exposure to humidity,[5]; humidity range of 40% RH to 75% RH,less than 1%
same,hygroscopicity (moderate),[5]; reversible sorption/desorption profile,< 5%
"CNCCCCCCCCN1CC[C@@H](C(C(N)=O)(c2ccccc2)c2ccccc2)C1 [Example 14, naphthalene-1,5-disulfonic acid salt of 2-[(S)-1-(8-methylaminooctyl)pyrrolidin-3-yl]-2,2-diphenylacetamide]","change in PXRD pattern, TGA trace, DSC trace, DMS trace, chemical purity, chiral purity and moisture content",[6],No change was observed
